Measurements as given in ChEMBL document CHEMBL1134360, “Thiazole and thiadiazole analogues as a novel class of adenosine receptor antagonists” (J Med Chem, 2001).

Assays:
[1] = target: Adenosine receptor A2a (Rattus norvegicus) (UniProt P30543); test: Displacement of [3H]CGS-21680 or [3H]ZM-241,385 binding in adenosine A2A receptor of rat striatal membrane at 10 uM
Adenosine receptor A3 = target: T1, Adenosine receptor A3 (Homo sapiens, UniProt P0DMS8); test: Displacement of [125I]AB-MECA from human adenosine A3 receptor expressed in HEK 293 cells; type: cell-based, HEK293
T1 sequence (P0DMS8 whole entry): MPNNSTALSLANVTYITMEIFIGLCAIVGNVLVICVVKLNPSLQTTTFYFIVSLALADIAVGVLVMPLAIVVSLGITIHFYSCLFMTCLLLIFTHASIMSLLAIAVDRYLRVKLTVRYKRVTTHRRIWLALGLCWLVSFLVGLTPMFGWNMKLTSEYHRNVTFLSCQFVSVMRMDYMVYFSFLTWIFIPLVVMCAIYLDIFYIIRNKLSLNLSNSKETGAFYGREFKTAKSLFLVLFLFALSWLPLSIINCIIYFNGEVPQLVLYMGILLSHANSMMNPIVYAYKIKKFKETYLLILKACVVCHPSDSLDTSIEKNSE

Adenosine receptor A1 = target: T2, Adenosine receptor A1 (Rattus norvegicus, UniProt P25099)
T2 sequence (P25099 whole entry): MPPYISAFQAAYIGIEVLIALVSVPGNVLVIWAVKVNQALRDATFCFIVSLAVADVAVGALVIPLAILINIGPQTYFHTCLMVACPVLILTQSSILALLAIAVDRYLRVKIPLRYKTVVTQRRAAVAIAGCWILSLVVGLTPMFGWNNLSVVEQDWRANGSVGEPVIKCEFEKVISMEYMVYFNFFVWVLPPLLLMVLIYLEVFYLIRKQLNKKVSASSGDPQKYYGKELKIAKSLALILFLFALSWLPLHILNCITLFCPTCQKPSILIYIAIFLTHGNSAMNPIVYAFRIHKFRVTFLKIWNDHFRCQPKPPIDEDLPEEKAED
Description: Displacement of [3H]DPCPX binding to adenosine A1 receptor of rat brain cortical membrane

Adenosine receptor A2a [2] = target: T3, Adenosine receptor A2a (Rattus norvegicus, UniProt P30543); test: Displacement of [3H]-CGS-21,680 or [3H]ZM-241385 binding in adenosine A2A receptor of rat striatal membrane was determined
T3 sequence (P30543 whole entry): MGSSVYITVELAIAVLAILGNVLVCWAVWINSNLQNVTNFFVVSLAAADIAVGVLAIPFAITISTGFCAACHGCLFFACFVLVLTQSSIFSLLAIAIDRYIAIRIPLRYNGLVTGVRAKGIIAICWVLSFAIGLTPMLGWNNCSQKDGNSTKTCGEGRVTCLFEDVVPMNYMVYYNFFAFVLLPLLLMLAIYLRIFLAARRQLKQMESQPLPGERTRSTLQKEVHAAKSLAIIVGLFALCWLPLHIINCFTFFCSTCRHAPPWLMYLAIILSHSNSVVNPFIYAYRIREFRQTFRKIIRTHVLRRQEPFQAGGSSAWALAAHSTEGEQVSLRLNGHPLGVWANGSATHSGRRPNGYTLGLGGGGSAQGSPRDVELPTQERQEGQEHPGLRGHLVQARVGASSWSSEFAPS

[3] = target: Adenosine receptor A2a (Rattus norvegicus) (UniProt P30543); test: Percentage displacement of [3H]-CGS- 21680 binding in adenosine A2A receptor of rat striatal membrane at a concentration of 10 uM
[4] = target: T4, Adenosine receptor A1 (Rattus norvegicus) (UniProt P25099); test: Percentage displacement of [3H]DPCPX binding in adenosine A1 receptor of rat brain cortical membrane at a concentration of 10 uM
T4 sequence (whole entry): T2 sequence (P25099 whole entry)

[5] = target: Adenosine receptor A2a (Rattus norvegicus) (UniProt P30543); test: Displacement of [3H]ZM-241385 binding in adenosine A2A receptor of rat striatal membrane at a concentration of 10 uM
[6] = target: T4, Adenosine receptor A1 (Rattus norvegicus); test: Displacement of [3H]DPCPX binding in adenosine A1 receptor of rat brain cortical membrane at a concentration of 10 uM
[7] = target: T5, Adenosine receptor A3 (Homo sapiens) (UniProt P0DMS8); test: Displacement of [125I]AB-MECA from adenosine A3 receptor expressed in HEK 293 cells at 10 uM; conditions: HEK293
T5 sequence (whole entry): T1 sequence (P0DMS8 whole entry)

[8] = target: T4, Adenosine receptor A1 (Rattus norvegicus); conditions: 10 uM
Description: Percent displacement of [3H]DPCPX binding in adenosine A1 receptor of rat brain cortical membrane at a concentration of 10 uM

[9] = target: Adenosine receptor A2a (Rattus norvegicus) (UniProt P30543); test: Percent displacement of [3H]-CGS- 21680 binding in adenosine A2A receptor of rat striatal membrane at a concentration of 10 uM
Adenosine receptor A2a [10] = target: T3, Adenosine receptor A2a; test: Displacement of [3H]-CGS- 21680 binding in adenosine A2A receptor of rat striatal membrane

Chain of Adenosine receptor A2a (Rattus norvegicus) (P30543 whole entry): as above

Cc1ccc(C(=O)Nc2nc(-c3ccccn3)cs2)cc1
Displacement [1]: 44% | Ki (Adenosine receptor A3): 3.2 µM | Ki (Adenosine receptor A1): 1.6 µM

O=C(Nc1ccccc1)Nc1nc(-c2ccccn2)cs1
Ki (Adenosine receptor A3): 5 µM | Ki (Adenosine receptor A1): 0.93 µM | Ki (Adenosine receptor A2a [2]): 0.92 µM

O=C(Nc1nc(-c2ccccc2)nc2ccccc12)c1ccccc1
Displacement [3]: 17% | Ki (Adenosine receptor A3): 0.24 µM | Displacement [4]: 34%

COc1ccc(C(=O)Nc2nc(-c3ccccc3)ns2)cc1
Ki (Adenosine receptor A3): 0.082 µM | Ki (Adenosine receptor A1): 0.032 µM | Ki (Adenosine receptor A2a [2]): 2.3 µM

COC1CCC(C(=O)Nc2nc(-c3ccccc3)ns2)CC1 (stereo in doubt; 8k)
Ki (Adenosine receptor A3): 1.7 µM | Ki (Adenosine receptor A1): 0.032 µM | Ki (Adenosine receptor A2a [2]): 1.9 µM

O=C(Nc1nc(-c2ccccc2)ns1)c1ccc(O)cc1
Ki (Adenosine receptor A3): 0.13 µM | Ki (Adenosine receptor A1): 0.0073 µM | Ki (Adenosine receptor A2a [2]): 0.57 µM

COc1ccc(C(=O)Nc2nc(-c3ccccc3)nc3ccccc23)cc1
Displacement [3]: 44% | Ki (Adenosine receptor A3): 0.027 µM | Ki (Adenosine receptor A1): 1.8 µM

O=C(Nc1nc(-c2ccccc2)ns1)c1ccccc1
Ki (Adenosine receptor A3): 0.41 µM | Ki (Adenosine receptor A1): 0.031 µM | Ki (Adenosine receptor A2a [2]): 4.4 µM

O=C(Nc1nc(-c2ccccn2)cc2ccccc12)c1ccccc1
Displacement [3]: 0%

O=C(Nc1nc(-c2ccccc2)ns1)C1CCC(O)CC1 (stereo in doubt) [listing 1 of 2 here]
Ki (Adenosine receptor A3): 1.9 µM | Ki (Adenosine receptor A1): 0.02 µM

O=C(Nc1nc(-c2ccccc2)cc2ccccc12)c1ccccc1
Displacement [3]: 0% | Ki (Adenosine receptor A3): 1.2 µM | Ki (Adenosine receptor A1): 1.2 µM

O=C(Nc1nc(-c2ccccn2)nc2ccccc12)c1ccccc1
Displacement [3]: 9% | Displacement [4]: 16%

O=C(Nc1nc(-c2ccccc2)ns1)C1CCC(O)CC1 (stereo in doubt; 8n) [listing 1 of 2 here]
Ki (Adenosine receptor A3): 2.7 µM | Ki (Adenosine receptor A1): 0.042 µM

O=C(Nc1ccccc1)Nc1nc(-c2ccccc2)cs1
Displacement [5]: 19% | Ki (Adenosine receptor A3): 9.9 µM | Displacement [4]: 37%

COc1ccc(C(=O)Nc2nc(-c3ccccc3)ns2)cc1C
Displacement [1]: 8% | Displacement [6]: 48% | Ki (Adenosine receptor A3): 0.58 µM

COc1ccc(NC(=O)Nc2nc(-c3ccccc3)ns2)cc1
Displacement [1]: 16% | Displacement [6]: 44% | Ki (Adenosine receptor A3): 3.3 µM

COc1ccc(C(=O)NC2=NN(c3ccccc3)CC2)cc1
Displacement [1]: 19% | Displacement [7]: 41% | Displacement [6]: 26%

COC1CCC(C(=O)Nc2nc(-c3ccccc3)ns2)CC1 (stereo in doubt; 8l)
Ki (Adenosine receptor A3): 5.3 µM | Ki (Adenosine receptor A1): 0.11 µM | Ki (Adenosine receptor A2a [2]): 2 µM

COc1ccc(C(=O)Nc2cc(-c3ccccc3)ncn2)cc1
Displacement [1]: 31% | Ki (Adenosine receptor A3): 0.8 µM

COc1ccc(NC(=O)Nc2nc(-c3ccccn3)cs2)cc1
Displacement [1]: 11% | Displacement [6]: 4% | Ki (Adenosine receptor A3): 147 µM

COc1ccc(C(=O)Nc2cc(-c3ccccc3)[nH]n2)cc1
Displacement [1]: 16% | Displacement [7]: 35% | Displacement [6]: 20%

O=C(Nc1nc(-c2ccccn2)cs1)c1ccc(I)cc1
Displacement [1]: 50%

O=C(Nc1nc(-c2ccccn2)cs1)C1CCCC1
Ki (Adenosine receptor A3): 2.1 µM | Ki (Adenosine receptor A1): 0.92 µM | Ki (Adenosine receptor A2a [2]): 1.3 µM

O=C(Nc1nc(-c2ccccn2)cs1)c1ccc(Cl)cc1
Displacement [1]: 30%

O=C(Nc1nc(-c2ccccc2)ns1)c1ccc([N+](=O)[O-])cc1
Displacement [1]: 5% | Displacement [7]: 28% | Displacement [6]: 34%

COc1ccc(C(=O)Nc2nc(-c3ccccn3)cs2)cc1
Displacement [1]: 40% | Ki (Adenosine receptor A3): 1.8 µM | Ki (Adenosine receptor A1): 3.2 µM

O=C(Nc1nc(-c2ccccn2)cs1)c1ccccc1
Ki (Adenosine receptor A3): 3.4 µM | Ki (Adenosine receptor A1): 1.7 µM | Ki (Adenosine receptor A2a [2]): 8.7 µM

CC(C)Oc1ccc(C(=O)Nc2nc(-c3ccccn3)cs2)cc1
Displacement [1]: 44% | Ki (Adenosine receptor A3): 3.7 µM | Ki (Adenosine receptor A1): 5.8 µM

Cc1ccc(C(=O)Nc2nc(-c3ccccc3)ns2)cc1
Displacement [1]: 38.2% | Ki (Adenosine receptor A3): 0.14 µM | Ki (Adenosine receptor A1): 0.03 µM

O=C(Nc1nc(-c2ccccc2)ns1)c1ccc(I)cc1
Displacement [1]: 19% | Displacement [6]: 49% | Ki (Adenosine receptor A3): 1.1 µM

O=C(Nc1nc(-c2ccccc2)ns1)C1CCC(O)CC1 (stereo in doubt) [listing 2 of 2 here]
Displacement [1]: 37%

COc1ccc(C(=O)Nc2nc(-c3ccccn3)cc3ccccc23)cc1
Displacement [8]: 37% | Displacement [9]: 19% | Ki (Adenosine receptor A2a [10]): > 10 µM | Ki (Adenosine receptor A1): > 10 µM

COc1ccccc1NC(=O)Nc1nc(-c2ccccc2)ns1
Displacement [1]: 38% | Displacement [7]: 20% | Displacement [6]: 27%

O=C(Nc1nc(-c2ccccc2)ns1)c1ccc(Cl)cc1
Displacement [1]: 36% | Ki (Adenosine receptor A3): 0.52 µM | Ki (Adenosine receptor A1): 0.041 µM

COc1ccccc1NC(=O)Nc1nc(-c2cccnc2)nc2ccccc12
Ki (Adenosine receptor A2a [10]): > 10 µM | Ki (Adenosine receptor A3): 0.004 µM | Ki (Adenosine receptor A1): > 10 µM

O=C(Nc1ccccc1)Nc1nc(-c2ccccc2)ns1
Displacement [1]: 48% | Ki (Adenosine receptor A3): 4 µM | Ki (Adenosine receptor A1): 1 µM

O=C(Nc1nc(-c2ccccn2)cs1)c1ccc([N+](=O)[O-])cc1
Displacement [1]: 29%

COC(=O)C1=C2C=CN(C)C=C2c2nc(-c3ccccc3)nn2C1
Ki (Adenosine receptor A3): 0.17 µM

COc1ccc(C(=O)Nc2nc(-c3ccccc3)cc3ccccc23)cc1
Displacement [3]: 35% | Ki (Adenosine receptor A3): 0.079 µM | Ki (Adenosine receptor A1): 3 µM

O=C(Nc1nc(-c2ccccc2)ns1)C1CCC(O)CC1 (stereo in doubt; 8n) [listing 2 of 2 here]
Displacement [1]: 41%

COc1ccc(C(=O)Nc2cccc(-c3ccccc3)n2)cc1
Displacement [1]: 16% | Displacement [6]: 46% | Ki (Adenosine receptor A3): 8.7 µM

Nc1nc2ccc(Cl)cc2c2nc(-c3ccco3)nn12 [CGS-15943]
Ki (Adenosine receptor A3): 0.14 µM

O=C(Nc1nc(-c2ccccc2)ns1)C1CCCCC1
Displacement [1]: 16% | Ki (Adenosine receptor A3): 16 µM | Ki (Adenosine receptor A1): 1.4 µM

O=C(Nc1nc(-c2ccccn2)cs1)c1cccc(Cl)c1
Ki (Adenosine receptor A3): 4.6 µM | Ki (Adenosine receptor A1): 1.7 µM | Ki (Adenosine receptor A2a [2]): 1.3 µM

COc1ccc(C(=O)Nc2cccc(-c3ccccc3)c2)cc1
Displacement [1]: 41% | Displacement [6]: 30% | Ki (Adenosine receptor A3): 10 µM

COc1ccc(C(=O)Nc2nc(-c3ccccc3)cs2)cc1
Ki (Adenosine receptor A3): 0.67 µM | Ki (Adenosine receptor A1): 0.076 µM | Ki (Adenosine receptor A2a [2]): 1.9 µM

O=C(Nc1nc(-c2ccccn2)cs1)c1ccc(Cl)c(Cl)c1
Displacement [1]: 20% | Ki (Adenosine receptor A3): 2.5 µM | Ki (Adenosine receptor A1): 1.6 µM

O=C(O)COc1ccc(C(=O)Nc2nc(-c3ccccc3)ns2)cc1
Ki (Adenosine receptor A3): 1.2 µM | Ki (Adenosine receptor A1): 0.1 µM | Ki (Adenosine receptor A2a [2]): 15 µM
